# Source: US10428071B2, “Carboline derivative serving as bromodomain inhibitor” (NINGBO WENDA PHARMA TECHNOLOY LTD., priority 2016, dated 2019)
# pIC50: −log10 of the molar value.
# What was measured:
# H211 cell line = experiment: Cell activity detection, Alamar-Blue, H211; assay type: cell-based; conditions: Homo sapiens, NCI-H211, 72 h incubation
# Procedure: (§1) H211 and H187 cell lines were purchased from ATCC and tested in accordance with the Alamar-Blue test kit instructions. The drugs were dissolved in 50 mM stock solution with DMSO and stored in a freezer at −20° C. The test drug stock solution was serially diluted with DMSO graded in a ratio of 1:3. Then DMSO diluted drug was serially diluted into a drug solution in 10× final concentration with cell complete culture medium. The 96-well cell culture plate was removed from the incubator, and 10 μl of culture medium containing a series of different concentrations of drug (10× final concentration) was added to a 96-well plate, and incubated at 37° C. for 72 h in CO2 incubator. The inhibition rate was plotted using GraphPad Prism 5.0 and MATILAB software by a non-linear regression method to obtain a series of dose-response curves from which the IC50 of the test sample was obtained, Table 2.
# [1] = molecular target: T1, BRD4 (BD1+BD2) bromodomain protein (Homo sapiens, UniProt O60885); experiment: TR-FRET BRD4 activity assay (Cayman kit); assay type: binding; conditions: room temperature 2 hours
# T1 construct: BRD4 (BD1+BD2) bromodomain protein; purchased Cayman
# Procedure: Detection of TR-FRET BRD4 Activity:
# The BRD4 activity assay was performed according to the TR-FRET method in the Cayman kit. Dilute 3×BRD TR-FRET Assay Buffer 1 with ultrapure water to 1×BRD TR-FRET Assay Buffer for further use. 1×BRD TR-FRET Assay Buffer was used to dilute Tb-labeled donor and dye-labeled acceptor in 100-fold. 5 μl of diluted Tb-labeled donor and dye-labeled acceptor were added respectively to the sample well, negative control well and positive control well. The configured 1×BRD TR-FRET Assay Buffer was used to formulate a 10% DMSO solution (excessive DMSO concentration would affect the reaction, and the final concentration of DMSO was controlled at 1%), then test compounds are diluted with 10% DMSO solution to give the compound's initial concentrations of 1 μM and 100 nM, IC50 test was started from 10 μM or 100 μM, diluted in 3-fold to give 8 or 10 concentration points. In addition to the control wells, 2 μl of the diluted test compound solution was added to the wells used, and 2 μl of the previously prepared 10% DMSO solution was added to the control wells. The BET Bromodomain Ligand and Non-acetylated Ligand 1 were respectively diluted in 40 fold with 1×BRD TR-FRET Assay Buffer. 5 μl of diluted BET Bromodomain Ligand was added to sample wells and positive control wells, and 5 μl of diluted non-acetylated ligand 1 was added into the negative control wells. 1×BRD TR-FRET Assay Buffer was used to dilute BRD4 (BD1+BD2) bromodomain protein to 6 ng/μl (18 ng/well), and 3 μl of diluted BRD4 (BD1+BD2) bromodomain protein was added to each well. The plate was sealed and mixed well. The reaction was performed at room temperature for 2 hours, and then fluorescence signals (320 nm stimulation, 665 nm, 615 nm emission) were detected with the ENVISION (Perkinelmer) instrument. The inhibition rate was calculated for each well by positive control wells and negative control wells, and average value was calculated for multiple wells. The results were plotted with Software PRISM 5.0 to fit the half inhibitory activity (IC50) for each test compound, Table 1.
# H187 cell line = experiment: Cell activity detection, Alamar-Blue, H187; assay type: cell-based; conditions: Homo sapiens, NCI-H187, 72 h incubation
# Procedure: as §1
# MDA-MB-231 cell line = experiment: Cell activity detection, CCK-8, MDA-MB-231; assay type: cell-based; conditions: Homo sapiens, CCK-8, 72 hours incubation
# Procedure: MDA-MB-231 cell line was purchased from Shanghai Cell Resource Center of the Chinese Academy of Sciences, and was performed according to the method in the kit of CCK-8. The cells in the logarithmic growth phase were collected, counted, and the cells were re-suspended in complete medium to adjust the cell concentration to a suitable concentration (determined according to cell density optimization test results), inoculated in 96-well plates, and each well was added with 100 μl of cell suspension. Cells were incubated at 37° C., in a 100% relative humidity and 5% CO2 incubator for 24 hours. The compound was diluted to the appropriate effective concentration determined with medium and the cells were added by 25 μl/well. The final concentration of the compound was diluted to from 1 μM to 0 μM graded in three-fold dilution to give 10 concentration points. The cells were incubated at 37° C., in a 100% relative humidity and 5% CO2 incubator for 72 hours. 1/10 volume of CCK-8 was added directly to the cell culture medium and incubated in a 37° C. incubator for 2-4 hours. The absorbance at 450 nm was determined on a SpectraMax M5 Microplate Reader after gentle shaking. Absorbance at 650 nm was taken as the reference. The IC50 curve fitting was performed using soft Graphpad Prism 5 and the IC50 value was calculated.
SMILES,pIC50 (H211 cell line),pIC50 [1],pIC50 (H187 cell line),pIC50 (MDA-MB-231 cell line)
Cc1nnn(C)c1-c1cnc2c3c4cnn(C)c4ccc3n([C@H](c3ccccc3)C3CCOCC3)c2c1 [Compound 6],8.70,9.00,8.26,8.80
Cc1nnn(C)c1-c1cnc2c3c4cnn(C)c4c(F)cc3n([C@H](c3ccccc3)C3CCOCC3)c2c1 [Compound 8],8.38,8.59,8.19,8.49
Cc1nnn(C)c1-c1cnc2c3cc4c(cc3n([C@H](c3ccccc3)C3CCOCC3)c2c1)C(=O)N(C)C4 [Compound 1],8.14,8.44,7.68,
Cc1nnn(C)c1-c1cnc2c3cc4cnn(C)c4cc3n([C@H](c3ccccc3)C3CCOCC3)c2c1 [Compound 5],7.53,8.42,7.46,
[2H]C([2H])([2H])c1nnn(C)c1-c1cnc2c3c4cnn(C)c4ccc3n([C@H](c3ccccc3)C3CCOCC3)c2c1 [Compound 13],8.70,9.00,8.26,8.74
Cc1nnn(C)c1-c1cnc2c3c4c(ccc3n([C@H](c3ccccc3)C3CCOCC3)c2c1)cnn4C [Compound 7],8.46,8.28,8.19,8.34
Cc1nnn(C)c1-c1cnc2c3c4cccnc4ccc3n([C@H](c3ccccc3)C3CCOCC3)c2c1 [Compound 12],7.92,8.49,8.12,
Cc1nnn(C)c1-c1cnc2c3c4ccn(C)c4ccc3n([C@H](c3ccccc3)C3CCOCC3)c2c1 [Compound 9],8.17,8.46,8.15,
Cc1nnn(C)c1-c1cnc2c3c4c(ccc3n([C@H](c3ccccc3)C3CCOCC3)c2c1)C(=O)N(C)C4 [Compound 3],8.28,8.72,7.46,
Cc1nnn(C)c1-c1cnc2c3cc4c(cnn4C)cc3n([C@H](c3ccccc3)C3CCOCC3)c2c1 [Compound 4],7.95,8.34,7.43,
Cc1nnn(C)c1-c1cnc2c3c4cc[nH]c4ccc3n([C@H](c3ccccc3)C3CCOCC3)c2c1 [Compound 10],7.49,8.82,8.07,8.09
[2H]C([2H])([2H])c1nnn(C)c1-c1cnc2c3c4cn[nH]c4ccc3n([C@H](c3ccccc3)C3CCOCC3)c2c1 [Compound 14],8.40,9.00,8.26,8.46
Cc1nnn(C)c1-c1cnc2c3cc4c(cc3n([C@H](c3ccccc3)C3CCOCC3)c2c1)CN(C)C4=O [Compound 2],8.07,8.66,7.72,
Cc1nnn(C)c1-c1cnc2c3c4cn[nH]c4ccc3n([C@H](c3ccccc3)C3CCOCC3)c2c1 [Compound 11],8.38,9.00,8.26,8.43
